Laboratory results as given in article PMC10650850, “Discovery, Structure–Activity Relationship and In Vitro Anticancer Activity of Small-Molecule Inhibitors of the Protein–Protein Interactions between AF9/ENL and AF4 or DOT1L” (Cancers, 2023).
Counter-ions that a name gives are not always drawn.

Target: T1, AF9-DOT1L interaction (Homo sapiens, UniProt P42568)
T1 construct: human AF9 AHD domain (475–568); made in house; host or cells: E. coli BL21(DE3)
T1 sequence (P42568 475-568): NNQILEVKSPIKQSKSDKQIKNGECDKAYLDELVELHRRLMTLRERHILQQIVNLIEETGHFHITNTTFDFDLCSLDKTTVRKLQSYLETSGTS
Experiment: AlphaLisa assay, AF9-DOT1L interaction
Type: binding
Settings: for IC50: MBP-protein 5 nM, biotinylated peptide 40 nM, 3 independent experiments with standard deviation, read-out: IC50 (μM) against the AF9-DOT1L interaction; for inhibition at 5 µM: read-out: % Inhibition at 5 μM against the AF9-DOT1L interaction
Excerpt: An AlphaLisa assay we previously developed was used for compound screening for inhibitors of the AF9-DOT1L interaction. The PPI takes the DOT1L-peptide coated donor beads and AF9 AHD coated acceptor beads together. The donor beads are illuminated with a laser beam (680 nm) to generate singlet oxygen radicals, which activate the adjacent acceptor beads to produce luminescence at 615 nm. When a compound can disrupt such PPI and separate the donor and acceptor beads, the highly unstable radicals are rapidly quenched by water without generating luminescence.
The cDNA for the human AF9 AHD domain (475–568) and ENL AHD domain (489–559) was synthesized (by Genscript, Piscataway, NJ, USA) and inserted into the pMAL c5X expression plasmid. The DOT1L peptide (Biotin-AHX-[…]) and AF4 peptide (Biotin-AHX-[…]) for the Alpha assay were purchased from Genscript.
Alpha assays were developed in our previous publication, using a Perkin-Elmer AlphaLisa anti-MBP kit, which contains streptavidin donor beads and anti-MBP acceptor beads. Briefly, the assay was performed using a MBP-protein (5 nM), a biotinylated peptide (40 nM), and increasing concentrations of a compound in 25 µL buffer (PBS with 0.5% BSA, pH 7.5) in 384-well plates according to the manufacturer’s protocol and measured with a Tecan SPARK microplate reader. Data were imported into Prism (version 5.0), and IC50 values from 3 independent experiments with standard deviation were obtained by using a standard dose-response curve fitting.

Row | inhibition at 5 µM (compound at 5 μM) [%] | Compound | further results
1 |  | O=C(NCC1CCNCC1)c1cc2ccc(Nc3ccc(N4CCCCC4)cc3)cc2o1 [Compound 74, 6-((4-(Piperidin-1-yl)phenyl)amino)-N-(piperidin-4-ylmethyl)-benzofuran-2-carboxamide hydrochloride] | IC50: 4.6 ± 0.3 µM
2 | 14 | O=C(NCC1CCNCC1)c1cc2ccc(-c3ccc(-c4ccsc4)cc3)cc2[nH]1 [Compound 6] | 
3 | 37 | CC(=O)c1ccc(-c2ccc3cc(C(=O)NCC4CCNCC4)[nH]c3c2)cc1 [Compound 8, 6-(4-Acetophenyl)-N-(piperidin-4-ylmethyl)-1H-indole-2-carboxamide hydrochloride] | 
4 | 19 | CC(C)(C)c1ccc(-c2ccc3cc(C(=O)NCC4CCNCC4)sc3c2)cc1 [Compound 40, 6-(4-(Tert-butyl)phenyl)-N-(piperidin-4-ylmethyl)-benzo[b]thiophene-2-carboxamide hydrochloride] | 
5 | 40 | O=C(NCC1CCNCC1)c1cc2ccc(-c3ccc(N4CCOCC4)cc3)cc2o1 [Compound 58, 6-(4-Morpholinophenyl)-N-(piperidin-4-ylmethyl)-benzofuran-2-carboxamide hydrochloride] | 
6 | 29 | O=C(NCC1CCNCC1)c1c[nH]c2cc(-c3ccc(N4CCOCC4)cc3)ccc12 [Compound 13, 6-(4-(Morpholinophenyl)-N-(piperidin-4-ylmethyl)-1H-indole-3-carboxamide hydrochloride] | 
7 | 13 | CC(C)(C)c1ccc(-c2ccc3[nH]c(C(=O)NCC4CCNCC4)cc3c2)cc1 [Compound 19] | 
8 | 52 | O=C(NCC1CCNCC1)c1cc2cc(-c3ccc(N4CCOCC4)cc3)ccc2[nH]1 [Compound 17] | 
9 | 8 | N#Cc1ccc(-c2ccc3[nH]c(C(=O)NCC4CCNCC4)cc3c2)cc1F [Compound 20, 5-(3-Fluoro-4-cyanophenyl)-N-(piperidin-4-ylmethyl)-1H-indole-2-carboxamide hydrochloride] | 
10 | 0 | Cl.O=C(NCC1CCNCC1)c1cc2ccc(-c3ccc(C(=O)N4CCC(N5CCCCC5)CC4)cc3)cc2s1 [Compound 33, 6-(4-(4-(Piperidin-1-yl)piperidin-1-carbonyl)phenyl)-N-(piperidin-4-ylmethyl)-benzo[b]thiophene-2-carboxamide hydrochloride] | Inhibitory activity against the AF9-DOT1L interaction (in words): inactive
11 | 31 | O=C(NCC1CCNCC1)c1cc2ccc(-c3ccc(C4CCCCC4)cc3)cc2[nH]1 [Compound 4, 6-(4-Cyclohexylphenyl)-N-(piperidin-4-ylmethyl)-1H-indole-2-carboxamide hydrochloride] | 
12 | ~50 | O=C(NCC1CCNCC1)c1cc2ccc(-c3ccc(Cl)cc3)cc2s1 [Compound 48, 6-(4-Chlorophenyl)-N-(piperidin-4-ylmethyl)-benzo[b]thiophene-2-carboxamide hydrochloride] | 
13 | 0 | O=C(NCC1CCNCC1)c1cc2ccc(-c3ccc(CO)cc3)cc2s1 [Compound 39, 6-(4-(Hydroxylmethyl)phenyl)-N-(piperidin-4-ylmethyl)-benzo[b]thiophene-2-carboxamide hydrochloride] | 
14 | 45 | O=C(NCC1CCNCC1)c1cc2ccc(-c3ccc(CN4CCCCC4)cc3)cc2s1 [Compound 28, 6-(4-(Piperidin-1-ylmethyl)phenyl)-N-(piperidin-4-ylmethyl)-benzo[b]thiophene-2-carboxamide hydrochloride] | 
15 |  | O=C(NCC1CCNCC1)c1cc2ccc(-c3ccc(N4CCCCC4)cc3)cc2[nH]1 [Compound 1] | IC50: 3.3 ± 0.2 µM
16 | 18 | O=C(NCC1CCNCC1)c1cc2ccc(-c3ccc(C4CCCCC4)cc3)cc2o1 [Compound 61, 6-(4-Cyclohexylphenyl)-N-(piperidin-4-ylmethyl)-benzofuran-2-carboxamide hydrochloride] | 

Row | inhibition at 5 µM (compound at 5 μM) [%] | Compound | further results
17 | 24 | COc1ccc(Oc2ccc3cc(C(=O)NCC4CCNCC4)oc3c2)cc1 [Compound 76, 6-(4-Methoxylphenoxyl)-N-(piperidin-4-ylmethyl)-benzofuran-2-carboxamide hydrochloride] | 
18 | 31 | O=C(NCC1CCNCC1)c1cc2cc(-c3ccc(C(=O)N4CCCCC4)cc3)ccc2s1 [Compound 51, 5-(4-(Piperidine-1-carbonyl)phenyl)-N-(piperidin-4-ylmethyl)-benzo[b]thiophene-2-carboxamide hydrochloride] | 
19 | 11 | NCc1ccc(-c2ccc3c(C(=O)NCC4CCNCC4)c[nH]c3c2)cc1 [Compound 14] | 
20 | 33 | O=C(NCC1CCNCC1)c1cc2ccc(-c3cccc(-c4ccccc4)c3)cc2o1 [Compound 68, 6-((1,1′-Biphenyl)-3-yl)-N-(piperidin-4-ylmethyl)-benzofuran-2-carboxamide hydrochloride] | 
21 | 1 | O=C(NCC1CCNCC1)c1cc2ccc(-c3ccc(C(=O)N4CCCC4)cc3)cc2o1 [Compound 63, 6-(4-((Pyrrolidine-1-yl)carbonyl)phenyl)-N-(piperidin-4-ylmethyl)-benzofuran-2-carboxamide hydrochloride] | 
22 | 0 | CC(=O)Nc1ccc(-c2ccc3cc(C(=O)NCC4CCNCC4)sc3c2)cc1 [Compound 38, 6-(4-(Acetamido)phenyl)-N-(piperidin-4-ylmethyl)-benzo[b]thiophene-2-carboxamide hydrochloride] | 
23 | 0 | Cc1cc(C#N)ccc1-c1ccc2[nH]c(C(=O)NCC3CCNCC3)cc2c1 [Compound 21] | 
24 | 24 | O=C(NCC1CCNCC1)c1cc2cc(Nc3ccc(OC(F)(F)F)cc3)ccc2s1 [Compound 56, 5-((4-(Trifluoromethoxyl)phenyl)amino)-N-(piperidin-4-ylmethyl)-benzo[b]thiophene-2-carboxamide hydrochloride] | 
25 |  | 5-(4-(Tert-butyl)phenyl)-N-(piperidin-4-ylmethyl)-benzo[b]thiophene-2-carboxamide hydrochloride [Compound 55] | % Inhibition at 5 μM against the AF9-DOT1L interaction (compound at 5 μM): 45%
26 | 10 | O=C(NCC1CCNCC1)c1cc2ccc(-c3ccsc3)cc2[nH]1 [Compound 11] | Inhibitory activity against the AF9-DOT1L interaction (in words): almost inactive
27 | 40 | O=C(NCC1CCNCC1)c1cc2ccc(-c3ccc(N4CCNCC4)cc3)cc2[nH]1 [Compound 5] | 
28 | 5 | Cl.O=C(NCC1CCNCC1)c1cc2ccc(-c3ccc(C(=O)N4CCC(N5CCCC5)CC4)cc3)cc2s1 [Compound 34, 6-(4-(4-(Pyrrolidin-1-yl)piperidin-1-carbonyl)phenyl)-N-(piperidin-4-ylmethyl)-benzo[b]thiophene-2-carboxamide hydrochloride] | Inhibitory activity against the AF9-DOT1L interaction (in words): inactive
29 | 38 | O=C(NCC1CCNCC1)c1cc2ccc(-c3ccc(N4CCNCC4)cc3)cc2o1 [Compound 59, 6-(4-(Piperazin-1-yl)phenyl)-N-(piperidin-4-ylmethyl)-benzofuran-2-carboxamide hydrochloride] | 
30 | 47 | Cc1ccc(-c2ccc3cc(C(=O)NCC4CCNCC4)sc3c2)cc1 [Compound 47, 6-(4-Methylphenyl)-N-(piperidin-4-ylmethyl)-benzo[b]thiophene-2-carboxamide hydrochloride] | 
31 | 15 | N#Cc1ccc(-c2ccc3cc(C(=O)NCC4CCNCC4)oc3c2)cc1 [Compound 73, 6-(4-Cyanophenyl)-N-(piperidin-4-ylmethyl)-benzofuran-2-carboxamide hydrochloride] | 
